Experimental data reported in ChEMBL document CHEMBL6121062, “Discovery, Optimization, and Preclinical Pharmacology of EP652, a METTL3 Inhibitor with Efficacy in Liquid and Solid Tumor Models” (J Med Chem, 2025).
Active and inactive are the calls of the source. The calls are words filed in the database; no cut-off is given here.

Tests used:
[1] = Toxicity in NSG mouse xenografted with human A549 cells assessed as body weight gain at 30 mg/kg, ip qd treated for 50 days; assay type: organism-based; conditions: in vivo, 1200 h, time 50 day
[2] = test system: Acute myeloid leukemic cell; assay: Antitumor activity against patient-derived human Acute myeloid leukemic cells xenografted in NSG mouse assessed as prolongation of animal survival at 30 mg/kg, ip qd treated for 91 days measured upto 112 days; assay type: functional, organism-based; conditions: time <= 112.0 day
Calu-6 = assay: Antiproliferative activity against human Calu-6 cells assessed as inhibition of cell viability incubated for 72 hrs by ATPlite assay; assay type: functional, cell-based; conditions: Calu-6, 72 h
[3] = In vivo inhibition of METTL3/METTL14-mediated m6A mRNA expression in PBMC of rat at 0.3 mg/kg, ip relative to control; assay type: functional
MV4-11 [4] = assay: Antitumor activity against human MV4-11 cells expressing Luc-mCh-Puro xenografted in NSG mouse assessed as decrease in hCD45+ cells in bone marrow at 30 mg/kg, ip qd measured after 28 days by flow cytometry; assay type: functional, organism-based; conditions: time 28.0 day
Cytochrome P450 1A2 = molecular target: T1, Cytochrome P450 1A2 (Homo sapiens, UniProt P05177); assay: Inhibition of CYP1A2 (unknown origin); assay type: ADME
T1 sequence (P05177 whole entry): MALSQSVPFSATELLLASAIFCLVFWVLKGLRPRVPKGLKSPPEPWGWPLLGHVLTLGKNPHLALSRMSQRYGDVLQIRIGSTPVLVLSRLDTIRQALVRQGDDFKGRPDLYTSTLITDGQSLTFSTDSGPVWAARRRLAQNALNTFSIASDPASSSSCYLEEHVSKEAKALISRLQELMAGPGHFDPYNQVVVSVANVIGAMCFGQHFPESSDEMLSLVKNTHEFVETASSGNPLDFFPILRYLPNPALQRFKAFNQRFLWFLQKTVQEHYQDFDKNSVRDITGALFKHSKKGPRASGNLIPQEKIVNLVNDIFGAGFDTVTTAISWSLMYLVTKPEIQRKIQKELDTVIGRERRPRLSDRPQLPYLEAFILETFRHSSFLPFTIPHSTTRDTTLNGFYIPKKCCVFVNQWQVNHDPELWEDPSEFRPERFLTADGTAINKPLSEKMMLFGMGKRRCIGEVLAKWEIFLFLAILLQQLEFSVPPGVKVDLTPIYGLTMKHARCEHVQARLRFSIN

Cytochrome P450 2D6 = Cytochrome P450 2D6 (Homo sapiens, UniProt P10635); assay: Inhibition of CYP2D6 (unknown origin); assay type: ADME
FaDu = assay: Antitumor activity against human FaDu cells xenografted in NSG mouse assessed as prolongation of animal survival at 30 mg/kg, ip qd treated for 20 days; assay type: functional, organism-based; conditions: time 20.0 day
MV4-11 [5] = assay: Antitumor activity against human MV4-11 cells expressing Luc-mCh-Puro xenografted in NSG mouse assessed as decrease in hCD45+ cells in blood at 30 mg/kg, ip qd measured after 28 days by flow cytometry; assay type: functional, organism-based; conditions: time 28.0 day
[6] = Lipophilicity, logD of compound in 1-octanol/PBS at pH 7.4 incubated for 24 hrs by HPLC analysis; assay type: physicochemical
[7] = molecular target: Voltage-gated inwardly rectifying potassium channel KCNH2 (Homo sapiens, UniProt Q12809); assay: Inhibition of hERG transfected in HEK293 cells at 20 mV; assay type: toxicity, cell-based
[8] = molecular target: METTL3/METTL14 (Homo sapiens) (UniProt Q86U44+Q9HCE5); assay: (§1) Inhibition of METTL3/METTL14-mediated m6A mRNA expression in human A549 cells incubated for 24 hrs by LC-MS/MS analysis; assay type: cell-based
METTL3/METTL14 = METTL3/METTL14 (Homo sapiens, UniProt Q86U44); assay: as §1; assay type: cell-based
Chain of METTL3/METTL14 (Q86U44 whole entry): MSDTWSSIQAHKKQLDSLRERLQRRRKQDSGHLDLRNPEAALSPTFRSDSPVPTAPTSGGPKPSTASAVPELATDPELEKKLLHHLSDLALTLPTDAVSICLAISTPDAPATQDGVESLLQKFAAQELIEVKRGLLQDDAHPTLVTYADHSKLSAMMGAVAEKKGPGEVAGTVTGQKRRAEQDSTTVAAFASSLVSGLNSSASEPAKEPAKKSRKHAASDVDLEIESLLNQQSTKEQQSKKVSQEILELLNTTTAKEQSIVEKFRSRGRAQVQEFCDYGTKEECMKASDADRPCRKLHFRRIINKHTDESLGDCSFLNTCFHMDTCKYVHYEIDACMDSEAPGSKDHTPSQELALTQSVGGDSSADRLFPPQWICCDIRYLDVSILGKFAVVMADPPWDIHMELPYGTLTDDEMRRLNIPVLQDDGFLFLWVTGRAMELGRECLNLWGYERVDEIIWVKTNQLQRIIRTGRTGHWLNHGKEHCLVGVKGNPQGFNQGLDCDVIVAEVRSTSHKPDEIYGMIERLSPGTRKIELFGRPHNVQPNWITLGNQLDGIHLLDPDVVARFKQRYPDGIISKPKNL
Chain of METTL3/METTL14 (Q9HCE5 whole entry, further chain): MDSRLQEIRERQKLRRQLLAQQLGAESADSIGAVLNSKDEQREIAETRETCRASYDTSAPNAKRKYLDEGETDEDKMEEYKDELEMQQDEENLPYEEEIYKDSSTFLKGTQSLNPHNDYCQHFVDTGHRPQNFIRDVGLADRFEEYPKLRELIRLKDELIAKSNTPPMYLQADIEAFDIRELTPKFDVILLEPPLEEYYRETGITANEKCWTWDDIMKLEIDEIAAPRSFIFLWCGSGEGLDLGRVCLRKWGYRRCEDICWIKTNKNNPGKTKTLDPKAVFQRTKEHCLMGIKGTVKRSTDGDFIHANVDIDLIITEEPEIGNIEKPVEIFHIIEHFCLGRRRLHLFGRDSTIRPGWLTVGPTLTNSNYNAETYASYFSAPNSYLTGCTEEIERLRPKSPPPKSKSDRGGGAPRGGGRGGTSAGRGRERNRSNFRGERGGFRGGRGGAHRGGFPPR

Chain of Voltage-gated inwardly rectifying potassium channel KCNH2 (Q12809 whole entry): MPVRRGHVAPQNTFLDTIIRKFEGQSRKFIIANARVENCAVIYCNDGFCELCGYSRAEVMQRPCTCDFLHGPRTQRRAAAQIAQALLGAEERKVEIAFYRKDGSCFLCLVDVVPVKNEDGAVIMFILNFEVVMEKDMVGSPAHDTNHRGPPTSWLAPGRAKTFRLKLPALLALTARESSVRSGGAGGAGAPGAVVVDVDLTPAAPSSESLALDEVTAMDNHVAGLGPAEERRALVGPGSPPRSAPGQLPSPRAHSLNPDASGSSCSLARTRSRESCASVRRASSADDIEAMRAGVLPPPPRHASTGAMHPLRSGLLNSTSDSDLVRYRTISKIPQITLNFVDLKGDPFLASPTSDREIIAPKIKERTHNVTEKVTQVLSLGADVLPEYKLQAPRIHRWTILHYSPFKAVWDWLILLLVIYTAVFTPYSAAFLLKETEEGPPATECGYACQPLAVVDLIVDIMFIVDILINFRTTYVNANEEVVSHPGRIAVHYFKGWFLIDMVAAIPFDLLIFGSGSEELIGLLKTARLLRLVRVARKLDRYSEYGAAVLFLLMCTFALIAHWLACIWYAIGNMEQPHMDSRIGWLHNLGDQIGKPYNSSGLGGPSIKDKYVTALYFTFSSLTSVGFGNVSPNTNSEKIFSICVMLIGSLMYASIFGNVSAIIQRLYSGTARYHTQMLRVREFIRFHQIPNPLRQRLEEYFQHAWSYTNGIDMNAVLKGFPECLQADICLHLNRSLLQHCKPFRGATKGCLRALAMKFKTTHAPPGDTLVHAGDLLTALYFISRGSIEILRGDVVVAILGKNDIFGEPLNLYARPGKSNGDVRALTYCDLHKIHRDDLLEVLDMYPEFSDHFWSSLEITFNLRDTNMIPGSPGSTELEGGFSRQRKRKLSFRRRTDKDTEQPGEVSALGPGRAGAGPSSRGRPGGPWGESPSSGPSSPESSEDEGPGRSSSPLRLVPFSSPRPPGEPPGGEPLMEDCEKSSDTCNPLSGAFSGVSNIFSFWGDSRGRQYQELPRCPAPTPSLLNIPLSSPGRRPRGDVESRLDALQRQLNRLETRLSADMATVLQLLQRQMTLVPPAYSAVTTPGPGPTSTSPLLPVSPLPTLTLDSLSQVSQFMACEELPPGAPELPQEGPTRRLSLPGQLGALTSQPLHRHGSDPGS
Chain of Cytochrome P450 2D6 (P10635 whole entry): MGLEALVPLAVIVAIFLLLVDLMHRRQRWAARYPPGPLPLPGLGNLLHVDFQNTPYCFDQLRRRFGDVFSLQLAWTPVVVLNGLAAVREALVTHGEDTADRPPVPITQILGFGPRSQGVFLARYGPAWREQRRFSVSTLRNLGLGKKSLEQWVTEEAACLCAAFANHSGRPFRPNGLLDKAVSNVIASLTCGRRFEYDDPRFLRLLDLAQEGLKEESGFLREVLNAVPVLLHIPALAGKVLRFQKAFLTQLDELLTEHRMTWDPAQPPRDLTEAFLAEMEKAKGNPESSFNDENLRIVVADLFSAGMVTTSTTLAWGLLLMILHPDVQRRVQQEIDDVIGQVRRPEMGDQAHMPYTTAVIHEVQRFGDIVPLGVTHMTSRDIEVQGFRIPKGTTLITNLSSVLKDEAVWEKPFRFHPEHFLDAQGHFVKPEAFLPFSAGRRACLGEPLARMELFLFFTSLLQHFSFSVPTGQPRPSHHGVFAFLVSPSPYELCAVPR

C[C@@H](n1cc(-c2cncc(N(C)C)c2)nn1)n1ccc(N2CCC[C@@H](NCC3CC3)C2)cc1=O
Activity [1]: Non-toxic | Activity [2]: Active | IC50 (Calu-6): 0.018 µM | Emax at 0.3 mg/kg [3]: ~75% | Activity (MV4-11 [4]): Active | IC50 (Cytochrome P450 1A2): > 100 µM | IC50 (Cytochrome P450 2D6): > 100 µM | Activity (FaDu): Active | Activity (MV4-11 [5]): Active | logD at 24 h [6]: 1.16 | IC50 [7]: > 30 µM | inhibition [8]: Dose-dependent-effect | IC50 (METTL3/METTL14): 0.007 µM
